# From publication PMC4753678 (Journal of medicinal chemistry, 2016)
# Legend:
# [1] = target: T1, full-length human dCTPase protein (Homo sapiens, UniProt Q9H773); test: HTS-adapted Malachite Green assay of dCTPase inhibition; format: biochemical; details: for decrease in potency: compared with compound 6
# T1 sequence (Q9H773 1-170): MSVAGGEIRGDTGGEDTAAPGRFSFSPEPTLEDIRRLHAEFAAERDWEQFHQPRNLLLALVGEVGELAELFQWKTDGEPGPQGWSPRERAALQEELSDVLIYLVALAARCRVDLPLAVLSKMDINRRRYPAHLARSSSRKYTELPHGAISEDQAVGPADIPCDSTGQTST
# NTPases/NUDIX hydrolases = test: selectivity panel of related NTPases/NUDIX hydrolases; format: biochemical
# DNA = DNA intercalation
# kinases = test: selectivity against kinases; format: biochemical
# [2] = mouse liver microsome stability; details: mouse liver microsomes
# purified dCTPase enzyme = target: T2, purified dCTPase enzyme (Homo sapiens, UniProt Q9H773); test: differential scanning fluorimetry assay; format: binding
# T2 sequence (Q9H773 1-170): T1 sequence (Q9H773 1-170)
# [3] = system: base excision repair enzymes; test: selectivity against base excision repair enzymes; format: biochemical
# [4] = human liver microsome stability; details: human liver microsomes
# intracellular dCTPase = target: T3, intracellular dCTPase (Homo sapiens, UniProt Q9H773); test: cellular thermal shift assay in HL60 cells; format: cell-based; details: 2 h incubation, heated at 67 °C
# T3 sequence (Q9H773 1-170): T1 sequence (Q9H773 1-170)
# dCTPase = target: T4, dCTPase (Homo sapiens, UniProt Q9H773); test: jump dilution assay; format: biochemical; details: 10% of the IC50 concentration
# T4 sequence (Q9H773 1-170): T1 sequence (Q9H773 1-170)
# [5] = glutathione conjugation with metabolic activation in HLM; format: in vitro ADME, human; details: in the presence of metabolic activation system (in HLM)
# [6] = system: p-Chk1, γ-H2AX, 53BP1, cleaved caspase 3; test: DNA replication stress and apoptosis markers; format: cell-based; details: at the concentrations and time points tested
# HL60 cells = test: combination with cytidine analogues, cell death by flow cytometry; format: cell-based; details: 72 h, compound 18 2.5 μM, increasing concentrations of cytidine analogues
# [7] = stability of a solution at room temperature under normal light; format: physicochemical; details: normal light conditions, five months
# plasma protein binding = format: in vitro ADME
smiles,measurement,setting,value
"COc1ccc(Cn2cnc3ccccc32)cc1 [Compound 7, 1-(4-Methoxybenzyl)-1H-benzo[d]imidazole]",inhibition of dCTPase (in words),[1],no inhibiton of dCTPase
"COc1ccc(Cn2cnc3cc(C)c(C)cc32)cc1 [Compound 8, 1-(4-Methoxybenzyl)-5,6-dimethyl-1H-benzo[d]imidazole]",inhibition of dCTPase (in words),[1],no inhibiton of dCTPase
"COc1ccc(Cn2c(C)nc3ccccc32)cc1 [Compound 9, 1-(4-Methoxybenzyl)-2-methyl-1H-benzo[d]imidazole]",inhibition of dCTPase (in words),[1],no inhibition of dCTPase
"COc1ccc(Cn2c(C)nc3cc(C)c(C)cc32)cc1 [Compound 10, 1-(4-Methoxybenzyl)-2,5,6-trimethyl-1H-benzo[d]imidazole]",decrease in potency,[1],400 fold
"COc1ccc(Cn2c(C)nc3c([N+](=O)[O-])cccc32)cc1 [Compound 12, 1-(4-Methoxybenzyl)-2-methyl-4-nitro-1H-benzo[d]imidazole]",decrease in potency,[1],approximately 25 fold
"COc1ccc(Cn2c(C)nc3c([N+](=O)[O-])c(Cl)c(Cl)cc32)cc1 [Compound 14, 5,6-Dichloro-1-(4-methoxybenzyl)-2-methyl-4-nitro-1H-benzo-[d]imidazole]",selectivity across related NTPases/NUDIX hydrolases,NTPases/NUDIX hydrolases,excellent selectivity
same,DNA intercalation,DNA,did not intercalate DNA
same,selectivity over kinases,kinases,excellent selectivity
same,E MLM (extraction ratio),[2],0.88
same,stabilization of the purified dCTPase enzyme,purified dCTPase enzyme,concentration-dependent stabilization
same,selectivity over base excision repair enzymes,[3],excellent selectivity
same,E HLM (extraction ratio),[4],0.59
same,intracellular dCTPase stabilization / target engagement,intracellular dCTPase,did not stabilize dCTPase
"Cc1nc2c([N+](=O)[O-])c(Cl)c(Cl)cc2n1Cc1ccc(B(O)O)cc1 [Compound 18, (4-((5,6-Dichloro-2-methyl-4-nitro-1H-benzo[d]imidazol-1-yl)-methyl)phenyl)boronic Acid]",selectivity across related NTPases/NUDIX hydrolases,NTPases/NUDIX hydrolases,excellent selectivity
same,DNA intercalation,DNA,did not intercalate DNA
same,reversibility of dCTPase inhibition,dCTPase,reversible off-rate
same,selectivity over kinases,kinases,excellent selectivity
same,E MLM (extraction ratio),[2],0.24
same,stabilization of the purified dCTPase enzyme,purified dCTPase enzyme,concentration-dependent stabilization
same,conjugation with glutathione (GSH),[5],did not conjugate
same,"DNA replication stress (p-Chk1, γ-H2AX, 53BP1) and cleaved caspase 3",[6],did not increase DNA replication stress
same,selectivity over base excision repair enzymes,[3],excellent selectivity
same,E HLM (extraction ratio),[4],0.38
same,intracellular dCTPase stabilization / target engagement,intracellular dCTPase,strong intracellular target engagement
same,cell death in combination with cytidine analogues,HL60 cells,concentration-dependent increase in cell death
same,degradation of a solution,[7],no signs of degradation
"Cc1n[nH]c(C)c1CCn1c(C)nc2c([N+](=O)[O-])c(Cl)c(Cl)cc21 [Compound 25, 5,6-Dichloro-1-(2-(3,5-dimethyl-1H-pyrazol-4-yl)ethyl)-2-methyl-4-nitro-1H-benzo[d]imidazole]",E MLM (extraction ratio),[2],0.89
same,E HLM (extraction ratio),[4],0.83
"Cc1nc2c([N+](=O)[O-])c(Cl)c(Cl)cc2n1Cc1ccc(-n2cccn2)cc1 [Compound 27, 1-(4-(1H-Pyrazol-1-yl)benzyl)-5,6-dichloro-2-methyl-4-nitro-1H-benzo[d]imidazole]",E MLM (extraction ratio),[2],0.73
same,E HLM (extraction ratio),[4],0.61
"Cc1nc2c([N+](=O)[O-])c(Cl)c(Cl)cc2n1Cc1ccc(B2OC(=O)CN(C)CC(=O)O2)cc1 [Compound 30, 2-(4-((5,6-Dichloro-2-methyl-4-nitro-1H-benzo[d]-imidazol-1-yl)methyl)phenyl)-6-methyl-1,3,6,2-dioxazaborocane-4,8-dione]",E MLM (extraction ratio),[2],0.36
same,conjugation with glutathione (GSH),[5],did not conjugate
same,fraction unbound,plasma protein binding,0.008
"O=[N+]([O-])c1c(Cl)c(Cl)cc2c1nc(C1CC1)n2Cc1ccc(B(O)O)cc1 [Compound 36, (4-((5,6-Dichloro-2-cyclopropyl-4-nitro-1H-benzo[d]imidazol-1-yl)methyl)phenyl)boronic Acid]",reversibility of dCTPase inhibition,dCTPase,reversible off-rate
same,E MLM (extraction ratio),[2],0.83
same,E HLM (extraction ratio),[4],0.14
"Cc1nc2cc(Cl)c(Cl)cc2n1Cc1ccc(B(O)O)cc1 [Compound 38, (4-((5,6-Dichloro-2-methyl-1H-benzo[d]imidazol-1-yl)methyl)-phenyl)boronic Acid]",inhibition of dCTPase (in words),[1],submicromolar activity
"Cc1nc2c([N+](=O)[O-])c(F)c(F)cc2n1Cc1ccc(B(O)O)cc1 [Compound 39, (4-((5,6-Difluoro-2-methyl-4-nitro-1H-benzo[d]imidazol-1-yl)-methyl)phenyl)boronic Acid]",inhibition of dCTPase (in words),[1],submicromolar activity
